According to patent US5053418A, “Antiprotozoal agents” (Burroughs Wellcome Co., priority 1983, dated 1991):

Legend:
P.falciparum = assay: In vitro activity against P.falciparum: inhibition of 3H-adenosine/3H-hypoxanthine incorporation (modified Desjardins); assay type: cell-based; settings: Plasmodium falciparum, naphthoquinone alone
Experimental: Each of the two compounds to be tested were dissolved in ethanol at a concentration of 10 mg/L and serially diluted with RPMI 1640 medium and 10% (v/v) human plasma in microtitration plates. P.falciparum-parasitised and fresh blood cells were added together with ^3 H-adenosine or ^3 H-hypoxanthinein RPMI 1640 medium and 10% human plasma. The cultures were then incubated at 37° C. for 43 hours, harvested and the particulate contents collected on glass fibre filter papers which were washed copiously with water using a Cooke Microtiter System (Dynatech Labs. Europe); the filter papers were dried and the radioactivity measured using a scintillation counter. Infected, untreated and uninfected cultures were included as controls. Percent inhibition was correlated with dose to provide an IC50 for each drug alone.
For subsequent combination experiments the individual drug solutions and mixtures thereof were serially diluted.
By the method of Example 1 the effect of a number of naphthoquinone/clopidol (4-pyridinol) combinations on P.falciparum in vitro were determined.

P.yoelii = assay: In vivo effect on P.yoelii in mice (inhibition of parasitaemia); settings: for ED50 for naphthoquinone: 5760 min
Experimental: The naphthoquinone and the pyridinol were each suspended in 0.25% (w/v) celacol in water by milling for 16-24 hours at 26° C. The suspensions were subsequently serially diluted with 0.25% (w/v) celacol in water. At time 0, 0.1 ml of a suspension of 10^7 P.yoelii-parasitised red blood cells/ml of phosphate buffered saline were injected intravenously into 15-20 g mice through a tail vein. Groups of 5 mice per treatment were dosed orally at times 6, 22, 30, 46, 54, 70 and 78 hours with 0.2 ml of the drug suspension. Tail-blood smears were taken at 96 hours, stained with Giemsa and the percentage of red blood cells infected determined and compared to untreated, infected controls. Percent inhibition was correlated with dose to provide ED50 values for each drug alone. In subsequent experiments dilutions of the two drugs, alone and in combination were used, and the percentage inhibition of parasitaemia and ED50 values (of each drug at fixed concentrations of the other) were determined. The results are shown respectively in Tables V and VI. A number of combinations of clopidol (4-pyridinol) and naphthoquinones were assayed and compared with each drug alone for their antimalarial effect against P.yoelii in vivo by the method of Example 4.

CCC(C)(C)C1CCC(C2=C(O)C(=O)c3ccccc3C2=O)CC1 (centres unmarked)
inhibition at 6.25 pg/mL (P.falciparum; 0.00000625 mg/L): 31% | inhibition at 12.5 pg/mL (P.falciparum; 0.0000125 mg/L): 51%

CC(=O)OC1=C(C2CCC(C)(C)CC2)C(=O)c2ccccc2C1=O
inhibition at 0.00075 µg/mL (P.falciparum; 0.000750 mg/L): 0% | inhibition at 0.0015 µg/mL (P.falciparum; 0.00150 mg/L): 0%

CC(C)(C)C1CCCC(C2=C(O)C(=O)c3ccccc3C2=O)C1 (centres unmarked)
inhibition at 0.05 µg/mL (P.falciparum; 0.0500 mg/L): 8% | inhibition at 0.1 µg/mL (P.falciparum; 0.100 mg/L): 24%

O=C1C(O)=C(C2CCCC2)C(=O)c2ccccc21
inhibition at 0.625 µg/mL (P.falciparum; 0.625 mg/L): 0% | inhibition at 1.25 µg/mL (P.falciparum; 1.25 mg/L): 2%

Cc1ccc(C2CCC(C3=C(O)C(=O)c4ccccc4C3=O)CC2)cc1C (centres unmarked)
inhibition at 0.000125 µg/mL (P.falciparum; 0.000125 mg/L): 15% | inhibition at 0.00025 µg/mL (P.falciparum; 0.00025 mg/L): 30%

O=C1C(O)=C(C2CCC(C3CCCCC3)CC2)C(=O)c2ccccc21 (centres unmarked) [2-(4-cyclohexylcyclohexyl)-3-hydroxy-1,4-naphthoquinone]
inhibition in vivo at 0.019 mg/kg (P.yoelii; Plasmodium yoelii, po, 96 h, naphthoquinone alone, 0.019 mg/Kg/dose, 7 doses): 13% | inhibition in vivo at 0.037 mg/kg (P.yoelii; Plasmodium yoelii, po, 96 h, naphthoquinone alone, 0.037 mg/Kg/dose, 7 doses): 28% | inhibition in vivo at 0.075 mg/kg (P.yoelii; Plasmodium yoelii, po, 96 h, naphthoquinone alone, 0.075 mg/Kg/dose, 7 doses): 17% | inhibition in vivo at 0.15 mg/kg (P.yoelii; Plasmodium yoelii, po, 96 h, naphthoquinone alone, 0.15 mg/Kg/dose, 7 doses): 16% | inhibition in vivo at 0.3 mg/kg (P.yoelii; Plasmodium yoelii, po, 96 h, naphthoquinone alone, 0.30 mg/Kg/dose, 7 doses): 74% | inhibition in vivo at 0.6 mg/kg (P.yoelii; Plasmodium yoelii, po, 96 h, naphthoquinone alone, 0.60 mg/Kg/dose, 7 doses): 99% | ED50 for naphthoquinone (P.yoelii; fixed clopidol 0.000 mg/kg/dose (alone)): 0.224 (0.224 to 0.208) mg/Kg/dose | ED50 for naphthoquinone (P.yoelii; fixed clopidol 0.94 mg/kg/dose): 0.109 (0.125 to 0.0909) mg/Kg/dose | ED50 for naphthoquinone (P.yoelii; fixed clopidol 1.9 mg/kg/dose): 0.0762 (0.0975 to 0.0599) mg/Kg/dose | ED50 for naphthoquinone (P.yoelii; fixed clopidol 3.75 mg/kg/dose): 0.0519 (0.0599 to 0.0450) mg/Kg/dose | ED50 for naphthoquinone (P.yoelii; fixed clopidol 7.5 mg/kg/dose): 0.0219 (0.0274 to 0.0151) mg/Kg/dose | ED50 for naphthoquinone (P.yoelii; fixed clopidol 15. mg/kg/dose): 0.0197 (0.0242 to 0.0121) mg/Kg/dose | % inhibition of parasitaemia (combination) (P.yoelii; naphthoquinone 0.019 + clopidol 0.94 mg/Kg/dose): 16% | % inhibition of parasitaemia (combination) (P.yoelii; naphthoquinone 0.019 + clopidol 1.9 mg/Kg/dose): 23% | % inhibition of parasitaemia (combination) (P.yoelii; naphthoquinone 0.019 + clopidol 3.7 mg/Kg/dose): 11% | % inhibition of parasitaemia (combination) (P.yoelii; naphthoquinone 0.019 + clopidol 7.5 mg/Kg/dose): 42% | % inhibition of parasitaemia (combination) (P.yoelii; naphthoquinone 0.019 + clopidol 15 mg/Kg/dose): 48% | % inhibition of parasitaemia (combination) (P.yoelii; naphthoquinone 0.037 + clopidol 0.94 mg/Kg/dose): 20% | % inhibition of parasitaemia (combination) (P.yoelii; naphthoquinone 0.037 + clopidol 1.9 mg/Kg/dose): 23% | % inhibition of parasitaemia (combination) (P.yoelii; naphthoquinone 0.037 + clopidol 3.7 mg/Kg/dose): 32% | % inhibition of parasitaemia (combination) (P.yoelii; naphthoquinone 0.037 + clopidol 7.5 mg/Kg/dose): 73% | % inhibition of parasitaemia (combination) (P.yoelii; naphthoquinone 0.037 + clopidol 15 mg/Kg/dose): 77% | % inhibition of parasitaemia (combination) (P.yoelii; naphthoquinone 0.075 + clopidol 0.94 mg/Kg/dose): 35% | % inhibition of parasitaemia (combination) (P.yoelii; naphthoquinone 0.075 + clopidol 1.9 mg/Kg/dose): 45% | % inhibition of parasitaemia (combination) (P.yoelii; naphthoquinone 0.075 + clopidol 3.7 mg/Kg/dose): 69% | % inhibition of parasitaemia (combination) (P.yoelii; naphthoquinone 0.075 + clopidol 7.5 mg/Kg/dose): 86% | % inhibition of parasitaemia (combination) (P.yoelii; naphthoquinone 0.15 + clopidol 0.94 mg/Kg/dose): 62% | % inhibition of parasitaemia (combination) (P.yoelii; naphthoquinone 0.15 + clopidol 1.9 mg/Kg/dose): 80% | % inhibition of parasitaemia (combination) (P.yoelii; naphthoquinone 0.15 + clopidol 3.7 mg/Kg/dose): 92% | % inhibition of parasitaemia (combination) (P.yoelii; naphthoquinone 0.30 + clopidol 0.94 mg/Kg/dose): 96% | % inhibition of parasitaemia (combination) (P.yoelii; naphthoquinone 0.30 + clopidol 1.9 mg/Kg/dose): 98%

CC(C)(C)C1CCC(C2=C(Cl)C(=O)c3ccccc3C2=O)CC1 (centres unmarked) [2-(4-t-butylcyclohexyl)-3-chloro-1,4-naphthoquinone]
inhibition at 0.0625 µg/mL (P.falciparum; 0.0625 mg/L): 18% | inhibition at 0.125 µg/mL (P.falciparum; 0.125 mg/L): 14% | inhibition at 0.25 µg/mL (P.falciparum; 0.25 mg/L): 17% | inhibition at 0.5 µg/mL (P.falciparum; 0.50 mg/L): 31% | inhibition at 1 µg/mL (P.falciparum; 1.0 mg/L): 55% | inhibition at 2 µg/mL (P.falciparum; 2.0 mg/L): 75%

CCCCCCCCCC1=C(O)C(=O)c2ccccc2C1=O [(CH2)8 Me, 2-n-nonyl-3-hydroxy-1,4-naphthoquinone]
inhibition in vivo at 3 mg/kg (P.yoelii; Plasmodium yoelii, po, 96 h, naphthoquinone alone, 3.0 mg/Kg × 7): 3% | inhibition in vivo at 9 mg/kg (P.yoelii; Plasmodium yoelii, po, 96 h, naphthoquinone alone, 9.0 mg/Kg × 7): 69% | % inhibition of parasitaemia (combination) (P.yoelii; naphthoquinone 3.0 + clopidol 1.4 mg/Kg × 7): 42% | % inhibition of parasitaemia (combination) (P.yoelii; naphthoquinone 3.0 + clopidol 4.3 mg/Kg × 7): 76% | % inhibition of parasitaemia (combination) (P.yoelii; naphthoquinone 9.0 + clopidol 1.4 mg/Kg × 7): 88% | % inhibition of parasitaemia (combination) (P.yoelii; naphthoquinone 9.0 + clopidol 4.3 mg/Kg × 7): 99%

O=C1C(O)=C(C2CCC(C3CCCCC3)CC2)C(=O)c2ccccc21 (centres unmarked) [drawing 17, 2-(4-cyclohexylcyclohexyl)-3-hydroxy-1,4-naphthoquinone]
inhibition in vivo at 0.075 mg/kg (P.yoelii; Plasmodium yoelii, po, 96 h, naphthoquinone alone, 0.075 mg/Kg × 7): 17% | inhibition in vivo at 0.15 mg/kg (P.yoelii; Plasmodium yoelii, po, 96 h, naphthoquinone alone, 0.15 mg/Kg × 7): 16% | % inhibition of parasitaemia (combination) (P.yoelii; naphthoquinone 0.075 + clopidol 1.9 mg/Kg × 7): 45% | % inhibition of parasitaemia (combination) (P.yoelii; naphthoquinone 0.075 + clopidol 3.75 mg/Kg × 7): 69% | % inhibition of parasitaemia (combination) (P.yoelii; naphthoquinone 0.15 + clopidol 1.9 mg/Kg × 7): 80% | % inhibition of parasitaemia (combination) (P.yoelii; naphthoquinone 0.15 + clopidol 3.75 mg/Kg × 7): 92%

CC(C)(C)C1CCC(C2=C(O)C(=O)c3ccccc3C2=O)CC1 (centres unmarked) [drawing 25]
inhibition in vivo at 0.6 mg/kg (P.yoelii; Plasmodium yoelii, po, 96 h, naphthoquinone alone, 0.6 mg/Kg × 7): 24% | inhibition in vivo at 0.9 mg/kg (P.yoelii; Plasmodium yoelii, po, 96 h, naphthoquinone alone, 0.9 mg/Kg × 7): 35% | % inhibition of parasitaemia (combination) (P.yoelii; naphthoquinone 0.6 + clopidol 2.5 mg/Kg × 7): 74% | % inhibition of parasitaemia (combination) (P.yoelii; naphthoquinone 0.6 + clopidol 5.0 mg/Kg × 7): 94% | % inhibition of parasitaemia (combination) (P.yoelii; naphthoquinone 0.9 + clopidol 2.5 mg/Kg × 7): 96% | % inhibition of parasitaemia (combination) (P.yoelii; naphthoquinone 0.9 + clopidol 5.0 mg/Kg × 7): 97%
